This note sets out measurements from ChEMBL document CHEMBL1141507, “Entry into a new class of protein kinase inhibitors by pseudo ring design” (Bioorg Med Chem Lett, 2008).

The structures appear in SMILES notation.

Assay [1] has as its target Tyrosine-protein kinase JAK2 (Homo sapiens, UniProt O60674). Briefly: Inhibition of JAK2.
The target in assay [2] is Hepatocyte growth factor receptor (Homo sapiens, UniProt P08581). Nature of the assay: Inhibition of cMet.
Assay [3] deals with Proto-oncogene tyrosine-protein kinase Src (Homo sapiens, UniProt P12931). Briefly: Inhibition of cSrc.
Proto-oncogene tyrosine-protein kinase Src, sequence (P12931 2-536 limits assumed): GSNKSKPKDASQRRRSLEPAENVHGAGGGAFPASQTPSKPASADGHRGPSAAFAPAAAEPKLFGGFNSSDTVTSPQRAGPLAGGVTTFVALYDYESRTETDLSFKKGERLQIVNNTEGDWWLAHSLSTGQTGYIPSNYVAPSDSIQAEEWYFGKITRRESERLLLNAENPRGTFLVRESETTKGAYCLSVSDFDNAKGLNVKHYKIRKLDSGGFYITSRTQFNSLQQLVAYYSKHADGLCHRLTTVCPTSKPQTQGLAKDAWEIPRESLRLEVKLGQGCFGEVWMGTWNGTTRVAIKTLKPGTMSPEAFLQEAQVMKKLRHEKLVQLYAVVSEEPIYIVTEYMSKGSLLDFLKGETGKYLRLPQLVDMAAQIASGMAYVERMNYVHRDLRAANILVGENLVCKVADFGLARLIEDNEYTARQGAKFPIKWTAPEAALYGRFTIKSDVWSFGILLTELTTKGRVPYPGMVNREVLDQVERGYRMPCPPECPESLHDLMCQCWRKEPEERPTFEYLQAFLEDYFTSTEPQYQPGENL
In assay [4] the target is Serine/threonine-protein kinase B-raf (Homo sapiens, UniProt P15056, V600E). Nature of the assay: Inhibition of bRaf V599E mutant.
Assay [5] deals with Insulin-like growth factor 1 receptor (Homo sapiens, UniProt P08069). Nature of the assay: Inhibition of IGF1R.
The target of assay [6] is Fibroblast growth factor receptor 1 (Homo sapiens, UniProt P11362). Briefly: Inhibition of FGFR1.
Fibroblast growth factor receptor 1, sequence (P11362 whole entry): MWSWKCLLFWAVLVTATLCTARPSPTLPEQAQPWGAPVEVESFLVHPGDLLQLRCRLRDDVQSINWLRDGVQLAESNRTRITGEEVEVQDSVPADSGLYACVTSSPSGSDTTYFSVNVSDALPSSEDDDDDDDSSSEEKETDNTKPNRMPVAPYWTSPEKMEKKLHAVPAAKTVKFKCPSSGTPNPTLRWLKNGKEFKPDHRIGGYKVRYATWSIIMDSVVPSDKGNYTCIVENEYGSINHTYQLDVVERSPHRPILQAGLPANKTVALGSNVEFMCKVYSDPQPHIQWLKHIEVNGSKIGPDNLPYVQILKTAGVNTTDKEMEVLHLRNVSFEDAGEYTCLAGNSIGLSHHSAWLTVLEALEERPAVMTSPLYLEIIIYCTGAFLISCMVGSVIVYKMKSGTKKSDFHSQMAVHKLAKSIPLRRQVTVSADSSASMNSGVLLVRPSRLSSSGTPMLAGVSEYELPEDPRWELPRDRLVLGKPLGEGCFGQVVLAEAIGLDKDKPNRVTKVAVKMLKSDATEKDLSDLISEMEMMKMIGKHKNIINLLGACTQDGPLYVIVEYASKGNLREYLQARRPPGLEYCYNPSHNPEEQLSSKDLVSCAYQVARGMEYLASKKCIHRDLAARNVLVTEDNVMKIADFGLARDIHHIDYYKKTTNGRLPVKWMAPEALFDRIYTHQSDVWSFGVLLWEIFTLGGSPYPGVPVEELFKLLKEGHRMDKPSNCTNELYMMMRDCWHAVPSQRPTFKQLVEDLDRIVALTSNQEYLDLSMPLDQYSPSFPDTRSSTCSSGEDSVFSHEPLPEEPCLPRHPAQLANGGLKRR
The target of assay [7] is Mast/stem cell growth factor receptor Kit (Homo sapiens, UniProt P10721). Nature of the assay: Inhibition of cKit.
Assay [8] has as its target T1, Tyrosine-protein kinase receptor UFO (Homo sapiens, UniProt P30530).
T1 sequence (P30530 whole entry): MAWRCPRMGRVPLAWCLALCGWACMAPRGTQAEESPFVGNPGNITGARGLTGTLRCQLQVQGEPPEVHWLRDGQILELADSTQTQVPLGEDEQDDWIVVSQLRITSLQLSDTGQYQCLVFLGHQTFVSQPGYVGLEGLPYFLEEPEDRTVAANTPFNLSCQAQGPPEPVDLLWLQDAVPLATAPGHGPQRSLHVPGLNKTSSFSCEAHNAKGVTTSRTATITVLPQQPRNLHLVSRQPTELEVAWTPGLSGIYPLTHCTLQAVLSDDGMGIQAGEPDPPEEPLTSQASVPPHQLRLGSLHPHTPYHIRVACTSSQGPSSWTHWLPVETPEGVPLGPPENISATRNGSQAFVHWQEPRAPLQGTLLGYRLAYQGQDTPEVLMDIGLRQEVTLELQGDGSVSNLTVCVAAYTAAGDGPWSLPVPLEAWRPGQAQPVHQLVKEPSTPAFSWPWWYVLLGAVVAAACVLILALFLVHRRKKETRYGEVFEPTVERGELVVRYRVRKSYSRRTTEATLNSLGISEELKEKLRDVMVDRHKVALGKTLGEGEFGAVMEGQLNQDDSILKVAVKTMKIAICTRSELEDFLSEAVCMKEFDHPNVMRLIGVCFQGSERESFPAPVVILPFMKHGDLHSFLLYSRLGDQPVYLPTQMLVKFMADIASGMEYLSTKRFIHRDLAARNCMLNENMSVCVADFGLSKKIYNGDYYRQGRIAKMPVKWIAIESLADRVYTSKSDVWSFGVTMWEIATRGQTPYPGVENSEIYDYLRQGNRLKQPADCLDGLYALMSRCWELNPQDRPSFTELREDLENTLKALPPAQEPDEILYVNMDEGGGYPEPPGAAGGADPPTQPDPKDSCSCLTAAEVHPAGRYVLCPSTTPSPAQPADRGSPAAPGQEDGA
Nature of the assay: Inhibition of Axl kinase.

A short description of assay [9]: Inhibition of p38 kinase.
For another assay, the target named is Angiopoietin-1 receptor (Homo sapiens, UniProt Q02763). Briefly: Inhibition of Tie2.
Angiopoietin-1 receptor, sequence (Q02763 whole entry): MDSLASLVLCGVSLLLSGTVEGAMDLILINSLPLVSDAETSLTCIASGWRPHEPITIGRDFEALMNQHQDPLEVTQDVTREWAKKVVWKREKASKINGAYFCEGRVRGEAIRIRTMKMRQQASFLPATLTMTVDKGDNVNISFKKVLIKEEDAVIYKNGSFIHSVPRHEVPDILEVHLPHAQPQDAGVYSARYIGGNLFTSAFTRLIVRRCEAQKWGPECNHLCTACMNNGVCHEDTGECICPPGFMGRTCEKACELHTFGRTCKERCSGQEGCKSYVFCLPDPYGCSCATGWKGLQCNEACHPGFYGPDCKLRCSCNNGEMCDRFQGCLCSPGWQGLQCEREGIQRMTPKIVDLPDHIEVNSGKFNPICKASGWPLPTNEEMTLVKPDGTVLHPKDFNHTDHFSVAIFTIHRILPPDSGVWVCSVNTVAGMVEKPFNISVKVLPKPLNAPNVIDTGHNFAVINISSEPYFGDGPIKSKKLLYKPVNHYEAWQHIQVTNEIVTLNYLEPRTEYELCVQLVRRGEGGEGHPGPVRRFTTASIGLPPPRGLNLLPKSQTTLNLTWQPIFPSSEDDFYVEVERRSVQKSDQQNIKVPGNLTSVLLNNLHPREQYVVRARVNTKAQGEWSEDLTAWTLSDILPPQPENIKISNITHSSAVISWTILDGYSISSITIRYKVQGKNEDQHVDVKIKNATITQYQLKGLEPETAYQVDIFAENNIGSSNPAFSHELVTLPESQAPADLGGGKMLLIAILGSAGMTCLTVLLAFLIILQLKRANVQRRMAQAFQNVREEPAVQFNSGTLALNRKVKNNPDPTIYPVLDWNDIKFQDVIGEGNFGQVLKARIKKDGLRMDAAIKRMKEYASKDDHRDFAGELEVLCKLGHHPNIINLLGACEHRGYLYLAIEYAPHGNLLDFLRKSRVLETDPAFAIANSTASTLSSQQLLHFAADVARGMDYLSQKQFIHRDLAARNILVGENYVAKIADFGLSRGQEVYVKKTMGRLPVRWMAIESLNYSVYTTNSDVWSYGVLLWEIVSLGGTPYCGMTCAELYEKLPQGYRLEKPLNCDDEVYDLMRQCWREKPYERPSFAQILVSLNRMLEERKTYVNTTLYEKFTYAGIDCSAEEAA
Assay [10] addresses Tyrosine-protein kinase ABL1 (Homo sapiens, UniProt P00519).
Assay [11] is described as follows: Inhibition of PKA.
Assay [12] addresses T2, Receptor-type tyrosine-protein kinase FLT3 (Homo sapiens, UniProt P36888).
T2 sequence (P36888 whole entry): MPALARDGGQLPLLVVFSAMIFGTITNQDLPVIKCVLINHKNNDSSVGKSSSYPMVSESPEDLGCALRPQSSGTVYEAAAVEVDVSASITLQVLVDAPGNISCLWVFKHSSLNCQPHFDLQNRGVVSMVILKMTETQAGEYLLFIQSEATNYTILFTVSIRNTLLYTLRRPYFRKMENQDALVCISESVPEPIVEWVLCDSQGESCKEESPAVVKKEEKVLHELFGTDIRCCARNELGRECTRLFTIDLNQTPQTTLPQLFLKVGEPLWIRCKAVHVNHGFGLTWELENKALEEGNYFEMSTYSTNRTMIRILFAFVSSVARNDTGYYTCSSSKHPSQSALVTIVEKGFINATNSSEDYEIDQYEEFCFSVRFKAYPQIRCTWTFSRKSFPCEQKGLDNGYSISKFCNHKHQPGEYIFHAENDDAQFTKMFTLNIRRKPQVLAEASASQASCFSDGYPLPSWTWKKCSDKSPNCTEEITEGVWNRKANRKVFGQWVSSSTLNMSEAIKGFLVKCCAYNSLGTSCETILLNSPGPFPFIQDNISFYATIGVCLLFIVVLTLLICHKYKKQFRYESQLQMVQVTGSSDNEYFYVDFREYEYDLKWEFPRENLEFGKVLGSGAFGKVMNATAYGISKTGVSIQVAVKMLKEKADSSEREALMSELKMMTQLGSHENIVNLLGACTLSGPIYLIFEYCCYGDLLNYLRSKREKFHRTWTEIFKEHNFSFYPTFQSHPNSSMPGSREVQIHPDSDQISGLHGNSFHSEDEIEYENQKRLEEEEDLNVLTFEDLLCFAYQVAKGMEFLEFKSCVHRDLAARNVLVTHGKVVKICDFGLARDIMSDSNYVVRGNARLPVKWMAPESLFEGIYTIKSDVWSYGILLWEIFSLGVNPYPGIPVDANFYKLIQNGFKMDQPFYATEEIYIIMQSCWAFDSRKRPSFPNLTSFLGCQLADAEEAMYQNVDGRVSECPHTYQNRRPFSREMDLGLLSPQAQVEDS
Nature of the assay: Inhibition of FLT3.

The target in assay [13] is Cyclin-dependent kinase 2 (Homo sapiens, UniProt P24941). Briefly: Inhibition of CDK2.
Assay [14] deals with Vascular endothelial growth factor receptor 2 (Homo sapiens, UniProt P35968). Nature of the assay: Inhibition of KDR.
Another assay deals with T3, Ephrin type-B receptor 4 (Homo sapiens, UniProt P54760).
T3 sequence (P54760 whole entry): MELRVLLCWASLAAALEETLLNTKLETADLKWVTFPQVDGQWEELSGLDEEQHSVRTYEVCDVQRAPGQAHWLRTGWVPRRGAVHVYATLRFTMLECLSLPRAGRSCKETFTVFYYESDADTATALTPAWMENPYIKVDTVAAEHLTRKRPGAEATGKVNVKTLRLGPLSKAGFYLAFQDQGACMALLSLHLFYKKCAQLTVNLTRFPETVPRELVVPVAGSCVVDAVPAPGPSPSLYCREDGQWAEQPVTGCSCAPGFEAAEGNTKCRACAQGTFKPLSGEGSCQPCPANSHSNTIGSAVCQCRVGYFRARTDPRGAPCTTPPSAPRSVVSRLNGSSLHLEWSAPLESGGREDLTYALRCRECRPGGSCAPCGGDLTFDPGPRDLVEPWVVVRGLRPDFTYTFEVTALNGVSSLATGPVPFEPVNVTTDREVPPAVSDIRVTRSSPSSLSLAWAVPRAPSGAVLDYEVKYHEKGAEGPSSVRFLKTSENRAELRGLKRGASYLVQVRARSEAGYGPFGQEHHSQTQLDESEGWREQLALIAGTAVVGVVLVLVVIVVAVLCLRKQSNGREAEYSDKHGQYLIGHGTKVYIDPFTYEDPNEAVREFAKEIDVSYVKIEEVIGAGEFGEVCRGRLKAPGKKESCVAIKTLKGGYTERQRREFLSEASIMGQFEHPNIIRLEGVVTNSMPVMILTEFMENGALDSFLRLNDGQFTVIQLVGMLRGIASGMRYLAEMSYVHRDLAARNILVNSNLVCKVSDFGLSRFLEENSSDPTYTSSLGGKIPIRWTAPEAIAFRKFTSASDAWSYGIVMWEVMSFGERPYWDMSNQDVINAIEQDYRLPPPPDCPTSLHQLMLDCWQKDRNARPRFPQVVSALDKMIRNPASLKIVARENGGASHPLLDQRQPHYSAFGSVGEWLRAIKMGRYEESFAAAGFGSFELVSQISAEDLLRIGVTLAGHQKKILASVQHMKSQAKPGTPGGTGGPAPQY
Nature of the assay: Inhibition of EphB4.

For assay [15], the target named is RAC-alpha serine/threonine-protein kinase (Homo sapiens, UniProt P31749). Briefly: Inhibition of PKB.

Hepatocyte growth factor receptor, sequence (P08581 whole entry): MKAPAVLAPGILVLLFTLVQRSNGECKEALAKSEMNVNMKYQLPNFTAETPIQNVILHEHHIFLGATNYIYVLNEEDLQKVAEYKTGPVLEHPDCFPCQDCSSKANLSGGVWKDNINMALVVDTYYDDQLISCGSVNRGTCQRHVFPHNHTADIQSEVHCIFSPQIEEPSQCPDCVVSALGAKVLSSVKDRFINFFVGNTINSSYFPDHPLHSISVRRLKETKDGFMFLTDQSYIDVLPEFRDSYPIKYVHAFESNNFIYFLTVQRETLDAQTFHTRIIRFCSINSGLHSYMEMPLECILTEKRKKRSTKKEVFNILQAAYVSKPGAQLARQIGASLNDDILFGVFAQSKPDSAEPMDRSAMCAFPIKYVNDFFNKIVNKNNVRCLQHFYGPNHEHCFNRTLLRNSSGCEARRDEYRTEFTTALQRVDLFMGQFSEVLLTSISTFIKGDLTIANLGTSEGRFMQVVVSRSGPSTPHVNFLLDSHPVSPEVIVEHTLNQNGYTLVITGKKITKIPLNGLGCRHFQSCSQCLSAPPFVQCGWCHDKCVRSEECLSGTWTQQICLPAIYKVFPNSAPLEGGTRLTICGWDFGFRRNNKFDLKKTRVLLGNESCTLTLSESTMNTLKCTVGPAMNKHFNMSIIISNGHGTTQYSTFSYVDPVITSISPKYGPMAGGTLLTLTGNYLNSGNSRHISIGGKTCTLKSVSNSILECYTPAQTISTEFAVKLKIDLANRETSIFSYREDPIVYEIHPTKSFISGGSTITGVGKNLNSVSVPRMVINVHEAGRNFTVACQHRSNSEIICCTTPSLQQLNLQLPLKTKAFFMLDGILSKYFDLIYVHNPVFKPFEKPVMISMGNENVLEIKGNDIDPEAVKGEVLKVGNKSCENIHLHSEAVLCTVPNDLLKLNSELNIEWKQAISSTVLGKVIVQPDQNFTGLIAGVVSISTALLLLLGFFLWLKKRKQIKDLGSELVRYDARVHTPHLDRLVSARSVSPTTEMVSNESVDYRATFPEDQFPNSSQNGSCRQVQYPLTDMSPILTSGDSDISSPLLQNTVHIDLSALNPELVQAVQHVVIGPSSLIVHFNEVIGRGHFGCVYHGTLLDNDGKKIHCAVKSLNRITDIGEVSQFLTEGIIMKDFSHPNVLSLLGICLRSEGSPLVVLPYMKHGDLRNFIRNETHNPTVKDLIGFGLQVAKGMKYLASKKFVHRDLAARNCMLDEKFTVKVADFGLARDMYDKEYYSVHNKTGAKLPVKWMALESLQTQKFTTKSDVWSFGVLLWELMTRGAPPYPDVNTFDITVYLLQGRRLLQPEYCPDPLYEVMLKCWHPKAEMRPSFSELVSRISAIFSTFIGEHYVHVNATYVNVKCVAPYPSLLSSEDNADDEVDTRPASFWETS
Tyrosine-protein kinase JAK2, sequence (O60674 whole entry): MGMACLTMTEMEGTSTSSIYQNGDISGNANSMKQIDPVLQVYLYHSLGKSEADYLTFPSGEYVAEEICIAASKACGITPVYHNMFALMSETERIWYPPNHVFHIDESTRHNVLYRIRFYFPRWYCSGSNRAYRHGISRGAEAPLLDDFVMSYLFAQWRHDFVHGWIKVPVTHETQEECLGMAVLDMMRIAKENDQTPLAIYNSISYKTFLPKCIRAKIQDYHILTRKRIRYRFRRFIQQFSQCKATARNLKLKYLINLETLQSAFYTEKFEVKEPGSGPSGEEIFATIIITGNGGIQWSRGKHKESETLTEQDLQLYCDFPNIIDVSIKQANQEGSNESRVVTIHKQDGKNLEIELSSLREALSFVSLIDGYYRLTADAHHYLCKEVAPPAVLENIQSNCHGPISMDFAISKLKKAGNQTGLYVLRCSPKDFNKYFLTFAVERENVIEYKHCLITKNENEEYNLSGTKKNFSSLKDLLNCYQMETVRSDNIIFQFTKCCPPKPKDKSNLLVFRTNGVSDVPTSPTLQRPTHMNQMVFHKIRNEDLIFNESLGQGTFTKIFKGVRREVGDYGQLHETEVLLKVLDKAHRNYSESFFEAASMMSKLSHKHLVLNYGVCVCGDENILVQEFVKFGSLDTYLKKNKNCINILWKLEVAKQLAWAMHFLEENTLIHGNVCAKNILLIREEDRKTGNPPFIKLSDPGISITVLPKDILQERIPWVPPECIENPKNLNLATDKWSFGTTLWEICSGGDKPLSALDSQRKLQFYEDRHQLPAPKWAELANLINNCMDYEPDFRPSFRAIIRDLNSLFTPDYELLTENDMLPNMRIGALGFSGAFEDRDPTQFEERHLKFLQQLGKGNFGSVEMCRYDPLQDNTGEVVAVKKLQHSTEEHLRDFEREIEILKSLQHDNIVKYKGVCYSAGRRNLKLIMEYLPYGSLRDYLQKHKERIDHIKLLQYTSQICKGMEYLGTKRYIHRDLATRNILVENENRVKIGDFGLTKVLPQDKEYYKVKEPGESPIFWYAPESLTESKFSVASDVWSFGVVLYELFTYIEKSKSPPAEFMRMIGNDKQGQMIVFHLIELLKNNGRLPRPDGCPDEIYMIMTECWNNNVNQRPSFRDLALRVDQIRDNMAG

Consider `CCN(CC)CCOc1ccc(Nc2cc(NC(=O)Nc3c(Cl)cccc3Cl)ncn2)cc1`, for which the concentration for half-maximal inhibition (IC50) in assay [1] was greater than 10000 nM; in assay [2], greater than 10000 nM; in assay [3], 66 nM; in [4], 150 nM; in assay [5] it was greater than 10000 nM; in [6], 570 nM. The IC50 in assay [7] is 930 nM; in assay [8], greater than 10000 nM; in assay [9] it was 350 nM; against Angiopoietin-1 receptor, 300 nM; in assay [10] it was 250 nM; in assay [11], greater than 10000 nM. Moreover, the IC50 was greater than 10000 nM in assay [12]; greater than 10000 nM in assay [13]; 960 nM in [14]; 430 nM against Ephrin type-B receptor 4; greater than 10000 nM in assay [15].

By IC50 is commonly meant the midpoint of a concentration-inhibition curve. A higher IC50 goes with a need for much substance.
